This experiment concerns the target T1, PI4KB (Homo sapiens, UniProt Q9UBF8).
T1 construct: purified GST-PI4KB (PV5277, Thermo Fisher)
It is filed as biochemical.

The structures appear in SMILES notation.

T1 sequence (Q9UBF8 2-816): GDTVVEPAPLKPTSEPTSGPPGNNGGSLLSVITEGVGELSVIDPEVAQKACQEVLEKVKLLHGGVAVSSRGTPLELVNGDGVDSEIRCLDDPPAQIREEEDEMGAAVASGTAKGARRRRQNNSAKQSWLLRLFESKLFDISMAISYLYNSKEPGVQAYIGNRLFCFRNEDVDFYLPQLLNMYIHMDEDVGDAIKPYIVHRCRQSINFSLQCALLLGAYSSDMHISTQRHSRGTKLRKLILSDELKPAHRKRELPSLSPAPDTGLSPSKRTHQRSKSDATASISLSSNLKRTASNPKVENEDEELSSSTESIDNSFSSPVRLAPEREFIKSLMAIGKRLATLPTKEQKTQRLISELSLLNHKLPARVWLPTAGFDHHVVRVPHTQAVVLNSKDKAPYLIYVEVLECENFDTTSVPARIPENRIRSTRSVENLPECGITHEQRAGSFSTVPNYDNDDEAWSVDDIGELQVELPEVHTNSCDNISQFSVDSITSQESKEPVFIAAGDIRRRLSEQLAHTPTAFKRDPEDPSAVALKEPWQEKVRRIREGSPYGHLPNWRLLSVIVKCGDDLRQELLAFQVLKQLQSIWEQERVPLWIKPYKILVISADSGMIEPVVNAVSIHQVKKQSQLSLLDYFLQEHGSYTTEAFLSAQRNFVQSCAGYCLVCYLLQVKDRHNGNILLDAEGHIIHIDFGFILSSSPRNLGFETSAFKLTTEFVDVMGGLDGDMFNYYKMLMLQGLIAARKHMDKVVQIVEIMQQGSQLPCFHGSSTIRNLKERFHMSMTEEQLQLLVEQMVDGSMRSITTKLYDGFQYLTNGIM

Compound `COc1cc(/C=C/C(=O)OC[C@H]2O[C@H](O[C@]3(COC(=O)/C=C/c4ccc(O)cc4)O[C@H](COC(=O)/C=C/c4ccc(O)cc4)[C@@H](O)[C@@H]3OC(=O)/C=C/c3ccc(O)cc3)[C@H](O)[C@@H](O)[C@@H]2O)ccc1O` [VCB, vanicoside B] returned a half-maximal inhibitory concentration (IC50) of 5 µM.

The record behind these values is PMC10145814 (Viruses, 2023).
